According to EP0025288A1, “Derivatives of monic acid, processes for their preparation, compositions containing them and their preparation” (priority 1979, dated 1981):
≈ marks a conversion by molar mass, not a printed value.

Key:
[1] = system: M. suipneumoniae J2206/183b; assay: MIC, anti-mycoplasmal, Friis broth solidified with 0.9% agarose; type: cell-based; conditions: Mesomycoplasma hyopneumoniae, 144 h, inoculum 10^3 to 10^5 C.F.U., 6 days incubation at 37°C, read-out: in vitro MIC
[2] = Serum binding by ultrafiltration; type: in vitro ADME, pig; conditions: pig, serum, compounds at 8 mcg/ml, microbiological assay (B. subtilis ATCC 6633), read-out: % bound to pig serum (converted)
Experimental: Serum binding was assessed by ultrafiltration of procine serum containing compounds at 8 mcg/ml, and through an Amicon CF50A ultrafiltration cone. Separation of ultrafiltrate was achieved by centrifugation.

M. suipneumoniae HK(2) = assay: MIC, anti-mycoplasmal, Friis broth solidified with 0.9% agarose; type: cell-based; conditions: Mesomycoplasma hyopneumoniae, 144 h, inoculum 10^3 to 10^5 C.F.U., 6 days incubation at 37°C, read-out: in vitro MIC
[3] = system: M. suipneumoniae PW/C/210; assay: as above; type: cell-based; conditions: Mesomycoplasma hyopneumoniae, 144 h, inoculum 10^3 to 10^5 C.F.U., 6 days incubation at 37°C, read-out: in vitro MIC
S dublin S7 = assay: MIC, veterinary bacteria; type: cell-based; conditions: veterinary bacteria (Table 2), read-out: MIC
E coli NCTC 10418 = assay: MIC, veterinary bacteria; type: cell-based; conditions: veterinary bacteria (Table 2), read-out: MIC
M. suipneumoniae UCD 1 = assay: MIC, anti-mycoplasmal, Friis broth solidified with 0.9% agarose; type: cell-based; conditions: Mesomycoplasma hyopneumoniae, UCD1, 144 h, inoculum 10^3 to 10^5 C.F.U., 6 days incubation at 37°C, read-out: in vitro MIC
Bord bronchiseptica BO8 = assay: MIC, veterinary bacteria; type: cell-based; conditions: veterinary bacteria (Table 2), read-out: MIC
M. hyorhinis ATCC 23234 = assay: MIC, anti-mycoplasmal, Friis broth solidified with 0.9% agarose; type: cell-based; conditions: Mesomycoplasma hyorhinis, ATCC23234, 144 h, inoculum 10^3 to 10^5 C.F.U., 6 days incubation at 37°C, read-out: in vitro MIC

CC(=CC(=O)OCCCC(=O)c1ccccc1)CC1OCC(CC2OC2C(C)C(C)O)C(O)C1O (stereo not drawn) [Example 5, 4-Phenylbutan-4-onyl monate A]
MIC [1]: 0.5 µg/mL (≈ 1.02 µM) | fraction unbound [2]: 0.036 | MIC (M. suipneumoniae HK(2)): 0.5 µg/mL (≈ 1.02 µM) | MIC [3]: 0.25 µg/mL (≈ 0.51 µM) | MIC (S dublin S7): > 80 µg/mL | MIC (E coli NCTC 10418): 80 µg/mL (≈ 163 µM) | MIC (M. suipneumoniae UCD 1): 0.5 µg/mL (≈ 1.02 µM) | MIC (Bord bronchiseptica BO8): 40 µg/mL (≈ 81.5 µM) | MIC (M. hyorhinis ATCC 23234): 0.25 µg/mL (≈ 0.51 µM)
